The text below walks through data of the NIST ThermoML archive (doi:10.1016/j.fluid.2009.09.019).

Numbers after ± are expanded uncertainties.

The conditions of data set [1]: 293.2 K; 101.33 kPa; Liquid; Vibrating tube method.
A short description of data set [2]: refractive index (Na D-line) (dimensionless). The conditions noted are these: 293.2 K; 101.33 kPa; Liquid; Standard Abbe refractometry.

In the case of `C1CCCCC1` [cyclohexane], the mass density in data set [1] was 778.12 ± 0.61 kg/m3. Further, the refractive index in data set [2] is reported as 1.4263 ± 0.0005.

Regarding `O=C1CCCO1` [γ-butyrolactone], the mass density in data set [1] was determined as 1128.7 ± 1.1 kg/m3. In addition, the refractive index in data set [2] turned out to be 1.4344 ± 0.0005.

For `Cc1ccccc1` [toluene], the refractive index in data set [2] was found to be 1.4967 ± 0.0004.

On to `CCCCCC` [hexane], for which the mass density in data set [1] was 660.1 ± 0.25 kg/m3. The refractive index in data set [2] is reported as 1.375 ± 0.0004.

As for `CCCCCCC` [heptane], the mass density in data set [1] came to 684.1 ± 0.25 kg/m3. The refractive index in data set [2] is reported as 1.3873 ± 0.0004.

What is called mass density is mass per unit of volume. Broadly, the refractive index is the speed of light in vacuum divided by its phase velocity in the sample.
